Data on six molecules can be found in PMC3145320 (Bioorganic & medicinal chemistry, 2011).

For orientation: Kb means the affinity of an antagonist, worked out from how it opposes an agonist. The low end stands for higher antagonist affinity, the high end for lower antagonist affinity. What is called Ki is a dissociation constant, usually derived from enzyme kinetics or from competition with a known ligand.

For one assay, the target named is κ-opioid receptor (Homo sapiens, UniProt P41145). Kind of assay: [35S]GTP-γ-S binding, κ-antagonism. The class given is biochemical. Particulars: n=3; for Kb: Ke κ-Antagonism. (Binding of GTPγS marks nucleotide exchange on a G protein.)
In assay [1] the target is T1, μ-opiate receptor (Homo sapiens, UniProt P35372). The assay can be described thus: biochemical. Particulars: for Kb: Ke μ-Antagonism.
Assay [2] deals with T1, μ-opiate receptor. Format: binding. The note with it: read-out: Ki μ.
Another assay addresses κ-opiate receptor (Homo sapiens, UniProt P41145). The assay can be described thus: [3H] opioid receptor binding, κ. The note with it: read-out: Ki κ; CHO cells stably transfected, expressing κ-opiate receptor; n=3.

κ-opioid receptor, sequence (P41145 whole entry): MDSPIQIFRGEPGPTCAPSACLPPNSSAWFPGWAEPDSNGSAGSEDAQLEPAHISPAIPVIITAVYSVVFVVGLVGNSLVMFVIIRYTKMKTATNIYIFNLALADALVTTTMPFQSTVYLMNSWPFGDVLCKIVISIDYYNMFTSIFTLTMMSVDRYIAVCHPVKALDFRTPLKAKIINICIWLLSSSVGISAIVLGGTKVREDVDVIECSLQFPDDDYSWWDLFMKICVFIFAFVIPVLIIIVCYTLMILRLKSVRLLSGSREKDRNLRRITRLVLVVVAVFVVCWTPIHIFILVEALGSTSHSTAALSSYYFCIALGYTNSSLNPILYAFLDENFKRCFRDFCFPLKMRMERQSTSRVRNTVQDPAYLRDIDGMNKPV
T1 sequence (P35372 whole entry): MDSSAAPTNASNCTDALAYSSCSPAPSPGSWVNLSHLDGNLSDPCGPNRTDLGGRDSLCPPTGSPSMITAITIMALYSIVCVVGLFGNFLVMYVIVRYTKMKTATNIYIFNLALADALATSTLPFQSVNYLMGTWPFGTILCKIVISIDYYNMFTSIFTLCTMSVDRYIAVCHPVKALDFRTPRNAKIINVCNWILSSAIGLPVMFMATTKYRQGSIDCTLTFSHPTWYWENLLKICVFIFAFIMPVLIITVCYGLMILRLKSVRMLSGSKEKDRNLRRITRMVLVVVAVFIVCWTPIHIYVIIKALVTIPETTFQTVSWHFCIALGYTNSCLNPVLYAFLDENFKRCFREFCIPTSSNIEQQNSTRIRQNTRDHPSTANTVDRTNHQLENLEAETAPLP
κ-opiate receptor, sequence (P41145 whole entry): as the sequence (P41145 whole entry) above

Turning to `Oc1cccc2c1O[C@@H]1CC[C@@H]3C[C@]21CCN3CCc1ccccc1` (racemic) [rac 5, rac-(4R,6aR,11bR)-2,3,4,5,6,6a-hexahydro-3-phenethyl-1H-4,11b-methanobenzofuro[3,2-d]azocin-8-ol], the Kb at κ-opioid receptor stood at 163 ± 29 nM; on μ-opiate receptor [1], 274 ± 49 nM.
Turning to `Oc1ccc2c(c1)[C@]13CCN(CCc4ccccc4)[C@H](CC[C@H]1O2)C3` (racemic) [rac 10, rac-(4R,6aR,11bR)-2,3,4,5,6,6a-hexahydro-3-phenethyl-1H-4,11b-methanobenzofuro[3,2-d]azocin-10-ol], on κ-opioid receptor, the Kb was 46 ± 9 nM.
Turning to `Oc1cccc2c1O[C@H]1CC[C@@H]3C[C@]21CCN3CCc1ccccc1` (stereo in doubt) [Compound 19b, (4R,6aS,11bR)-2,3,4,5,6,6a-Hexahydro-3-phenethyl-1H-4,11b-methanobenzofuro[3,2-d]azocine-8-ol], the Kb was 22 ± 6 nM at κ-opioid receptor and 31 ± 6 nM on μ-opiate receptor [1].
For `Oc1ccc2c(c1)[C@]13CCN(CCc4ccccc4)[C@H](CC[C@@H]1O2)C3` [Compound 16a, (4R,6aS,11bR)-2,3,4,5,6,6a-Hexahydro-3-phenethyl-1H-4,11b-methanobenzofuro[3,2-d]azocine-10-ol], the results for the antagonist dissociation constant (Kb) at κ-opioid receptor and at μ-opiate receptor [1] were 100 ± 3 nM and 47 ± 9 nM, respectively.
Taken in the same sequence, the figures for `Oc1ccc2c(c1)[C@@]13CCN(CCc4ccccc4)[C@@H](CC[C@H]1O2)C3` [Compound 16b, (4S,6aR,11bS)-2,3,4,5,6,6a-Hexahydro-3-phenethyl-1H-4,11b-methanobenzofuro[3,2-d]azocine-10-ol] were 103 ± 17 nM and 227 ± 33 nM.
As to “(4S,6aR,11bS)-2,3,4,5,6,6a-hexahydro-3-phenethyl-1H-4,11b-methanobenzofuro[3,2-d]azocine-8-ol [Compound 19a]”, the Ki on μ-opiate receptor [2] was 384 ± 38 nM; on κ-opiate receptor, 367 ± 19 nM. The “Ke κ-Antagonism” value on κ-opioid receptor is given as 761 ± 191 nM. Moreover, the “Ke μ-Antagonism” value on μ-opiate receptor [1] was found to be 328 ± 67 nM.
